# Patent US8748466B2, “Isoxazole derivatives useful as antibacterial agents” (Pfizer Inc., priority 2011, dated 2014)
# Read-outs that look alike come from different tables or passages of the source.
# Columns and labels:
# [1] = target: T1, Pseudomonas aeruginosa LpxC enzyme (Pseudomonas aeruginosa, UniProt P47205); test: LpxC enzyme IC50 assay (PA LpxC enzyme IC50), BioTrove RapidFire mass spectrometry; assay type: biochemical
# T1 construct: made in house; host or cells: E. coli
# T1 sequence (P47205 1-303): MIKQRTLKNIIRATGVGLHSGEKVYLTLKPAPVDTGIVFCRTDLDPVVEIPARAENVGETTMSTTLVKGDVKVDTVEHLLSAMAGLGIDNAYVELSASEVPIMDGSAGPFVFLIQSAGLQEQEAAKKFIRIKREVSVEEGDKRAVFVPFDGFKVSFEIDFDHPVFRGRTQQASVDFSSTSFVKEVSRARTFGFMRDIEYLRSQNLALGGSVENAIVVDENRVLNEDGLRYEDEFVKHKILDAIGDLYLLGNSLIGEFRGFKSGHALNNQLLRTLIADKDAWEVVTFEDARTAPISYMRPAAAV
# Protocol: In order to assess the compounds biological activity selected in vitro assays were conducted on selected compounds. One of the assays measured the compounds ability to disrupt the synthesis of lipopolysaccharide, LPS, which is a component of the outer membrane of Gram-negative bacteria. Disruption of this synthesis is lethal to the bacteria. The assay determined the compound's ability to inhibit LpxC, which is the first enzyme in the biosynthetic pathway for LPS (measured as IC50). Additionally, MICs (minimal inhibitory concentrations) were determined for several bacteria. The specific protocols are described below:
# A) IC50 Assay LpxC Enzyme from P. aeruginosa Labeled as PA LpxC Enzyme IC50):
# At the end of 1 hour, 5 ul of 1 N HCl was added to stop the enzyme reaction, the plates were centrifuged, and then processed with the BioTrove Rapidfire HTMS Mass Spectrometry System. A no-enzyme control was used in calculating the IC50 values from the percent conversion values.
# [2] = system: Pseudomonas aeruginosa UC12120 (mouse virulent); test: MIC determination (CLSI), PA-UC12120; assay type: cell-based; details: UC12120, read-out: PA-UC12120 MIC
# Protocol: (§1) The in vitro antibacterial activity of compounds described in the Examples was evaluated by minimum inhibitory concentration (MIC) testing according to Clinical and Laboratory Standards Institute (CLSI). See: Clinical and Laboratory Standards Institute. Methods for Dilution Antimicrobial Susceptibility Tests for Bacteria that Grow Aerobically; Approved Standard-Eighth Edition. CLSI document M7-A8 [ISBN 1-56238-689-1]. Clinical and Laboratory Standards Institute, 940 West Valley Road, Suite 1400, Wayne, Pa. 19087-1898 USA, 2006; also Clinical and Laboratory Standards Institute. Performance Standards for Antimicrobial Susceptibility Testing; Twentieth Informational Supplement. CLSI document M100-S20 [ISBN1-56238-716-2]. Clinical and Laboratory Standards Institute.
# (§2) The MIC determination is a standard laboratory method for evaluating the antibacterial activity of a compound. The MIC represents the lowest drug concentration that inhibits visible growth of bacteria following overnight incubation. […] Typically, the drug concentration range is broken down into 2-fold increments (e.g., 0.06 μg/mL, 0.12 μg/mL. 0.25 μg/mL, 0.50 μg/mL, 1.0 μg/mL, etc.) and the various drug concentrations are all individually incubated overnight with approximately the same number of bacteria. The MIC is then determined by visually inspecting the drug effect at each concentration, and identifying the lowest drug concentration that has inhibited bacterial growth as compared to the drug free control. Typically, bacteria continue to grow at drug concentrations lower than the MIC and don't grow at concentrations at and above the MIC.
# (§3) The MIC values described in Tables 4 and 5 below were derived from assays wherein each test compound was evaluated in duplicate. In cases where the duplicate values varied by 0-2-fold, the lower of the two values was reported below. Generally speaking, if the duplicate values varied by more than 2-fold, the assay was considered non-valid and was repeated until the variation between duplicate runs was 2-fold. In line with the CLSI guidelines referred to above, both control organisms and reference compounds were utilized in each MIC assay to provide proper quality control. MIC values generated with these control organisms and reference compounds were required to fall within a defined range for the assay to be considered valid and be included herein. Those skilled in the art will recognize that MIC values can and do vary from experiment to experiment. Generally speaking, it should be recognized that MIC values often vary +/−2-fold from experiment to experiment. While a single MIC is reported for each compound and each microorganism, the reader should not conclude that each compound was only tested once. Several of the compounds were subjected to multiple tests. The data reported in Tables 4 and 5 is reflective of the compound's relative activity and different MICs may have been generated on these occasions in line with the guidelines described above.
# (§4) The following bacterial strains were used in these MIC determinations:
# 1) Pseudomonas aeruginosa UC12120 (mouse virulent) labeled as PA-UC12120 in Tables 4 and 5;
# [3] = system: Escherichia coli EC-1: VOGEL, mouse virulent; test: MIC determination (CLSI), EC-1; assay type: cell-based; details: read-out: EC-1 MIC
# Protocol: as §1, §2, §3, §4
# 2) Escherichia coli EC-1: VOGEL, mouse virulent labeled as EC-1 in Tables 4 and 5;
# [4] = system: Acinetobacter baumannii/haemolyticus: Multidrug-resistant clinical isolate AB-3167; test: MIC determination (CLSI), AB-3167; assay type: cell-based; details: overnight incubation, duplicate, lower of the two values reported
# Protocol: as §1, §2, §3, §4
# 3) Acinetobacter baumannii/haemolyticus: Multidrug-resistant clinical isolate labeled as AB-3167 in Tables 4 and 5;
# [5] = P. aeruginosa LpxC enzyme 0.1 nM, 25° C., 1 hour, pH 8.0, read-out: PA:IC50
Structure (SMILES),IC50 [1],MIC [2],MIC [3],MIC [4],"IC50 [1, 5]"
"C[C@@](CCc1cc(-c2ccccc2)on1)(C(=O)NO)S(C)(=O)=O [Example 6, (2R)-N-hydroxy-2-methyl-2-(methylsulfonyl)-4-(5-phenylisoxazol-3-yl)butanamide]",0.51 nM,0.25 µg/mL,8 µg/mL,> 64 µg/mL,–
"CC(CCc1cc(-c2ncccc2F)no1)(C(=O)NO)S(C)(=O)=O (racemic) [Example 43, 4-[3-(3-fluoropyridin-2-yl)isoxazol-5-yl]-N-hydroxy-2-methyl-2-(methylsulfonyl)butanamide]",–,32 µg/mL,64 µg/mL,> 64 µg/mL,> 100 nM
"CC(CCc1cc(CC2(O)CCCCC2)on1)(C(=O)NO)S(C)(=O)=O (racemic) [Example 17, N-hydroxy-4-{5-[(1-hydroxycyclohexyl)methyl]isoxazol-3-yl}-2-methyl-2-(methylsulfonyl)butanamide]",–,> 64 µg/mL,> 64 µg/mL,> 64 µg/mL,> 100 nM
"CC(CCc1cc(-c2ccc(F)cc2)no1)(C(=O)NO)S(C)(=O)=O (racemic) [Example 44, 4-[3-(4-fluorophenyl)isoxazol-5-yl]-N-hydroxy-2-methyl-2-(methylsulfonyl)butanamide]",–,1 µg/mL,16 µg/mL,> 64 µg/mL,3.8 nM
"CC(CCc1cc(-c2ccncc2F)no1)(C(=O)NO)S(C)(=O)=O (racemic) [Example 37, 4-[3-(3-fluoropyridin-4-yl)isoxazol-5-yl]-N-hydroxy-2-methyl-2-(methylsulfonyl)butanamide]",–,16 µg/mL,> 64 µg/mL,> 64 µg/mL,52.4 nM
"C[C@@](CCc1cc(-c2ccccc2)no1)(C(=O)NO)S(C)(=O)=O [Example 4, (2R)-N-hydroxy-2-methyl-2-(methylsulfonyl)-4-(3-phenylisoxazol-5-yl)butanamide]",–,0.25 µg/mL,4 µg/mL,> 64 µg/mL,5.78 nM
"CC(CCc1cc(CCc2ccccc2)no1)(C(=O)NO)S(C)(=O)=O (racemic) [Example 39, N-hydroxy-2-methyl-2-(methylsulfonyl)-4-[3-(2-phenylethyl)isoxazol-5-yl]butanamide]",–,4 µg/mL,32 µg/mL,> 64 µg/mL,9.8 nM
"COc1cccc(OC)c1-c1cc(CCC(C)(C(=O)NO)S(C)(=O)=O)no1 (racemic) [Example 24, 4-[5-(2,6-dimethoxyphenyl)isoxazol-3-yl]-N-hydroxy-2-methyl-2-(methylsulfonyl)butanamide]",–,> 64 µg/mL,> 64 µg/mL,> 64 µg/mL,> 100 nM
"COc1ccc(-c2cc(CCC(C)(C(=O)NO)S(C)(=O)=O)on2)cc1OC (racemic) [Example 42, 4-[3-(3,4-dimethoxyphenyl)isoxazol-5-yl]-N-hydroxy-2-methyl-2-(methylsulfonyl)butanamide]",–,64 µg/mL,> 64 µg/mL,> 64 µg/mL,38.6 nM
"COc1ccccc1-c1cc(CCC(C)(C(=O)NO)S(C)(=O)=O)no1 (racemic) [Example 16, N-hydroxy-4-[5-(2-methoxyphenyl)isoxazol-3-yl]-2-methyl-2-(methylsulfonyl)butanamide]",–,16 µg/mL,> 64 µg/mL,> 64 µg/mL,40.5 nM
"CC(CCc1cc(-c2ccc3c(c2)OCO3)no1)(C(=O)NO)S(C)(=O)=O (racemic) [Example 33, 4-[3-(1,3-benzodioxol-5-yl)isoxazol-5-yl]-N-hydroxy-2-methyl-2-(methylsulfonyl)butanamide]",–,2 µg/mL,16 µg/mL,> 64 µg/mL,5.1 nM
"CCc1ccc(-c2cc(CCC(C)(C(=O)NO)S(C)(=O)=O)on2)s1 (racemic) [Example 7, 4-[3-(5-ethyl-2-thienyl)isoxazol-5-yl]-N-hydroxy-2-methyl-2-(methylsulfonyl)butanamide]",–,0.5 µg/mL,4 µg/mL,64 µg/mL,1.1 nM
"COc1cccc(-c2cc(CC[C@](C)(C(=O)NO)S(C)(=O)=O)on2)c1F [Example 1, (2R)-4-[3-(2-Fluoro-3-methoxyphenyl)isoxazol-5-yl]-N-hydroxy-2-methyl-2-(methylsulfonyl)butanamide]",5.32 nM,2 µg/mL,4 µg/mL,> 64 µg/mL,–
"CC(CCc1cc(-c2ccc3ccccc3n2)no1)(C(=O)NO)S(C)(=O)=O (racemic) [Example 35, N-hydroxy-2-methyl-2-(methylsulfonyl)-4-(3-quinolin-2-ylisoxazol-5-yl)butanamide]",–,8 µg/mL,32 µg/mL,> 64 µg/mL,22.1 nM
"CC(CCc1cc(-c2ccc(F)c(F)c2F)no1)(C(=O)NO)S(C)(=O)=O (racemic) [Example 36, N-hydroxy-2-methyl-2-(methylsulfonyl)-4-[3-(2,3,4-trifluorophenyl)isoxazol-5-yl]butanamide]",–,1 µg/mL,16 µg/mL,> 64 µg/mL,3.9 nM
"COc1ccccc1-c1cc(CCC(C)(C(=O)NO)S(C)(=O)=O)on1 (racemic) [Example 49, N-hydroxy-4-[3-(2-methoxyphenyl)isoxazol-5-yl]-2-methyl-2-(methylsulfonyl)butanamide]",–,32 µg/mL,> 64 µg/mL,> 64 µg/mL,42.4 nM
"CC(CCc1cc(CNS(=O)(=O)c2ccc(F)cc2)on1)(C(=O)NO)S(C)(=O)=O (racemic) [Example 27, 4-[5-({[(4-fluorophenyl)sulfonyl]amino}methyl)isoxazol-3-yl]-N-hydroxy-2-methyl-2-(methylsulfonyl)butanamide]",–,> 64 µg/mL,> 64 µg/mL,> 64 µg/mL,> 100 nM
"COc1cccc(OC)c1-c1cc(CCC(C)(C(=O)NO)S(C)(=O)=O)on1 (racemic) [Example 32, 4-[3-(2,6-dimethoxyphenyl)isoxazol-5-yl]-N-hydroxy-2-methyl-2-(methylsulfonyl)butanamide]",–,> 64 µg/mL,> 64 µg/mL,> 64 µg/mL,88.7 nM
